Patent US20210008018A1, “DEUTERATED ANALOGS OF D-BETA-HYDROXYBUTYRIC ACID AND USES THEREOF” (Concert Pharmaceuticals, Inc., priority 2018, published 2021)

How the values were obtained:
[1] = molecular target: β-hydroxybutyrate dehydrogenase from Pseudomonas lemoignei (Paucimonas lemoignei, UniProt A0A4R3I0R9); assay: Metabolic stability using D-β-hydroxybutyrate dehydrogenase (NADH formation, Km/Vmax); conditions: for CLint Ratio (NCE/PCE): NCE = Compound 100, 102 or 202, PCE = protio DBHB; for T1/2 Δ (%): [(deuterated species)-(nondeuterated species)](100)/(nondeuterated species); for ^DV: deuterium isotope effect on Vmax versus D-β-hydroxybutyric acid; for ^D(V/K): deuterium isotope effect on Vmax/Km versus D-β-hydroxybutyric acid; for CLint: intrinsic clearance calculated from Vmax and Km; for half-life: b-hydroxybutyrate dehydrogenase, pH 7.8; for Vmax: compound as substrate, NADH formation, Michaelis-Menten non-linear regression, 100 mM Tris pH 7.8
β-hydroxybutyrate dehydrogenase from Pseudomonas lemoignei, sequence (A0A4R3I0R9 entry or part of it): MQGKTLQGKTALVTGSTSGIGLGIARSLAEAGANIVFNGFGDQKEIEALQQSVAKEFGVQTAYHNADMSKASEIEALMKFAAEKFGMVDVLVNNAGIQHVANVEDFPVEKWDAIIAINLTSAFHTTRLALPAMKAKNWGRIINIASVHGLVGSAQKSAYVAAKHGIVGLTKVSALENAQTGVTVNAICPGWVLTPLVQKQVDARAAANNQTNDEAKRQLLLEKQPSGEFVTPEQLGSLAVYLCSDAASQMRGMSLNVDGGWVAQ
Experimental: (§1) Materials: β-Hydroxybutyrate Dehydrogenase from Pseudomonas lemoignei, nicotinamide adenine dinucleotide sodium salt (NAD), β-nicotinamide adenine dinucleotide, reduced dipotassium salt (NADH) and Trizma Base were purchased from Sigma-Aldrich.
(§2) Determination of Metabolic Stability of Compounds of the Invention Using D-β-hydroxybutyrate Dehydrogenase: 100 mM Tris pH 7.8 was prepared for assessing catalytic activity and as diluent to form corresponding solutions. Enzyme solution was prepared by dissolving lyophilized β-hydroxybutyrate dehydrogenase from Pseudomonas lemoignei in 100 mM Tris pH 7.8 to a final concentration of 200 Units/mL. The enzyme working stock solution (2 Units/mL) was prepared by dilution of stock solution (200 Units/mL) with 100 mM Tris pH 7.8 buffer. 30 mM NAD stock solution was prepared by dissolving NAD in 100 mM Tris pH 7.8 buffer. […] Working stock solutions of test compounds were prepared over the concentration range of 1 to 40 mM by appropriate dilutions in 100 mM Tris pH 7.8 buffer. 10 mM analytical standard stock solution were prepared by dissolving NADH in 100 mM Tris pH 7.8. Analytical standards were prepared over the concentration range of 0.05 to 1.5 mM by appropriate dilutions in 100 mM Tris pH 7.8. Enzymatic assays were conducted by aliquoting 40 μL of working test compound stock solution, 6 μL of enzyme working stock solution, 178 μL 100 mM Tris pH 7.8 into 96-well white clear bottom plates. The enzymatic assay was initiated by adding 16 μL of 30 mM NAD. The reaction was incubated at 37° C. The progress of each reaction was monitored over 15 minutes by measuring absorbance at […] of all wells every minute using a Perkin Elmer Enspire Multimode plate reader. Blank wells were prepared to subtract background. NADH formation was quantified using NADH analytical standard curve on same 96-well plate used to monitor enzyme activity. All reactions were conducted in triplicate.
(§3) The activity was determined by monitoring the rate of conversion of NAD to NADH by change in absorbance at 340 nm. The appropriate background was subtracted for each concentration and compound investigated and NADH concentration formed was calculated using NADH standard curve. The initial rates (v) for NADH formation as a function of initial test compound concentration (C) to derive Km and Vmax values by non-linear regression using Michaelis-Menten equation using GraphPad Prism 7 for Windows (version 7.03).
(§4) Difference between Vmax, Km and catalytic efficiency (Vmax/Km) for each compound was assessed using unpaired t-test with statistical significance using Holm-Sidak method with α=0.05. The unpaired t-test values were calculated using GraphPad Prism 7 for Windows (version 7.03).
(§5) Intrinsic clearance (CLint) and half-life (t1/2) values were calculated for each test compound using the following equations.

[2] = molecular target: β-hydroxybutyrate dehydrogenase (Paucimonas lemoignei, UniProt A0A4R3I0R9); assay: as above; conditions: Pseudomonas lemoignei, pH 7.8
β-hydroxybutyrate dehydrogenase, sequence (A0A4R3I0R9 entry or part of it): as above
Experimental: as §1, §2, §3, §4, §5

[3] = using Vmax/Km to predict clearance, vs D-β-hydroxybutyric acid, 0.167 mM to 6.7 mM
[4] = vs D-β-hydroxybutyric acid, D-β-Hydroxybutyrate Dehydrogenase Assay

Structure (SMILES)	CLint Ratio (NCE/PCE) [1]	T1/2 Δ (%) [1]	^DV [1]	^D(V/K) [1]	CLint [1]	clearance predicted to be reduced by, compared to D-β-hydroxybutyric acid [1, 3]	increase in half-life (T1/2) [1, 4]	half-life [2]	half-life [1]	Vmax ([1]; 0.167 mM to 6.7 mM)	clearance predicted to be increased by, compared to D-β-hydroxybutyric acid [1, 3]	decrease in half-life (T1/2) [1, 4]
[2H][C@](C)(O)CC(=O)O [Compound 100, (R)-3-Hydroxybutanoic-3-d1 Acid]	0.7	40.2%	1.1	1.4	0.0190 mL/min	30%	40%	36.4 min	–	–	–	–
[2H]C([2H])([2H])[C@@]([2H])(O)CC(=O)O [Compound 102, (R)-3-hydroxybutanoic-3,4,4,4-d4 Acid]	0.5	114%	1.0	2.1	0.0125 mL/min	50%	114%	–	55.7 min	0.0213 µmol/mL/min	–	–
[2H]C([2H])([2H])[C@@H](O)CC(=O)O [Compound 202, (R)-3-hydroxybutanoic-4,4,4-d3 Acid]	2.0	−48.7%	0.7	0.5	0.0520 mL/min	–	–	–	13.3 min	0.0330 µmol/mL/min	100%	~49%
C[C@@H](O)CC(=O)O [DBHB, D-β-hydroxybutyric acid, reference compound]	–	–	–	–	0.0267 mL/min	–	–	26 min	–	–	–	–
